Reference: patent publication US20250052751A1, “COMPOSITIONS AND METHODS FOR DIAGNOSING AUTOIMMUNE AQUAPORINOPATHY” (The Regents of the University of California, priority 2023, published 2025)

Legend:
[1] = biological target: T1, MHC class II I-A^b molecules (Mus musculus, UniProt P14434+P14483); assay: I-A^b affinity assay (competitive binding against a radiolabeled high-affinity peptide); conditions: purified I-A^b; for peptide binding affinity for I-A^b: unlabeled peptide vs radiolabeled high-affinity competitor peptide
T1 construct: made in house
T1 sequence (P14434 24-256): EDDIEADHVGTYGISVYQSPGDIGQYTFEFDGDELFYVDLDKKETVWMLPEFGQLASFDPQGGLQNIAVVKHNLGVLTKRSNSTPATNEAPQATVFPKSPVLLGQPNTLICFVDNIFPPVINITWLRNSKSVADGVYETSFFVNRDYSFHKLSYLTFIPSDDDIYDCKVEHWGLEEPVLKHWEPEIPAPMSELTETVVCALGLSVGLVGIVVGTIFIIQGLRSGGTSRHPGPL
T1 sequence (P14483 28-265): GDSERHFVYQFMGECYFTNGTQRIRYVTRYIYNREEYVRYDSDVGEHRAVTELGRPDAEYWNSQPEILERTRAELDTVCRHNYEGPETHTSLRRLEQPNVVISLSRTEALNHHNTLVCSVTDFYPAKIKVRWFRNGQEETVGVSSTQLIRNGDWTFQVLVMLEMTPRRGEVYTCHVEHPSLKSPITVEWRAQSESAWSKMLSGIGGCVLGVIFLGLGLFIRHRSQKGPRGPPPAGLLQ
Experimental: FIGS. 2A-2F. Pathogenic AQP4 determinants bind I-A^b with high affinity and elicit proliferation of AQP4: I-A^b-specific TCR-bearing T cells in AQP4-deficient mice. (FIG. 2A) WT or AQP4^−/− mice were immunized s.c. with peptides indicated. Peptide-specific proliferation of draining lymph node cells was measured by 3H-thymidine incorporation (mean±SEM, representative of five experiments). (FIG. 2B) Lymph node cells from AQP4 immunized WT or AQP4^−/− mice were cultured for 3 days with cognate antigen under Th17 polarizing conditions. AQP4 p133-149- and p202-218-specific Th17 cells from AQP4/donors induce paralysis in WT recipient mice. (FIG. 2C) IEDB, an in silico method for predicting determinants within proteins that bind MHC alleles, was used to identify AQP4 amino acid sequences anticipated to bind I-A^b for recognition by AQP4-specific/I-A^b-restricted CD4^+ T cells. 1/IC50 is plotted against the first amino acid for each overlapping AQP4 15 mer. Peaks correspond to increased predicted binding affinity. (FIG. 2D) Purified I-A^b molecules were tested biochemically for peptide binding affinity using a competitive binding assay between a radiolabeled high-affinity competitor peptide and unlabeled peptides (22). Lower IC50 values indicate higher binding affinity. Boxed amino acids designate the core binding regions. (FIGS. 2E-2F) Lymph node T cells isolated from WT or AQP4−/− mice immunized with AQP4 p133-149 or p202-218 were stained with I-A^b:p133-149 and […] tetramers, bead-enriched and analyzed by flow cytometry. […] Each data point represents one mouse. ****p<0.0001 (Mann Whitney U test).
Both AQP4 p133-149 and p202-218 are predicted to bind MHC II (I-A^b) with high affinity according to the Immune Epitope Database (IEDB) (FIG. 2C), an in silico method for predicting determinants within proteins that bind allele-specific MHC molecules for presentation to T cells (21). We have now examined AQP4 peptide affinity for I-A^b biochemically. I-A^b molecules that were purified by affinity chromatography were tested in a competitive binding assay between a radiolabeled high-affinity competitor peptide and unlabeled peptides (22). Indeed, peptides containing the two pathogenic AQP4 T cell determinants bound I-A^b with higher affinity than the nonpathogenic AQP4 p24-35 T cell epitope or MOG p35-55 (FIG. 2D).
I-A^b affinity Assay. Purification of MHC class II I-A^b molecules by affinity chromatography, and the performance of assays based on the inhibition of binding of a high affinity radiolabeled peptide to quantitatively measure peptide binding, were performed as described (22). Lower IC50 values indicate higher binding affinity. Excellent binders have affinities less than 100 nM and good binders have affinities less than 1000 nM.

[2] = tested on: CD4^+ T cells; assay: I-A^b:peptide tetramer binding by flow cytometry after peptide immunization; assay type: cell-based, mouse
Experimental: FIGS. 4A-4B. Negative selection of AQP4 p133-149-reactive T cells is bypassed partially in mice deficient in thymic AQP4 expression. (FIG. 4A) AQP4^−/− WT, Foxn1cre-AQP4^fl/fl, Aire^−/−, or Foxn1cre-Fezf2^fl/fl mice were immunized s.c. with peptides indicated. Peptide-specific proliferation of draining lymph node cells was measured by 3H-thymidine incorporation (mean±SEM, representative of five experiments). Comparisons within the five experiments for p133-149 at […]: WT vs. AQP4^−/− (p=0.008), WT vs. Foxn1cre-AQP4^fl/fl (p=0.008). (FIG. 4B) Ten days after peptide immunization, CD4^+ T cells from draining lymph nodes were analyzed for I-A^b: peptide tetramer binding by flow cytometry. Each data point represents the frequency (mean±SEM) of CD4^+ T cells bound to cognate antigen-tetramer in a single mouse. […] For p133-149: WT vs. Aire^−/− (p=0.9), WT vs. Foxn1cre-Fezf2^fl/fl (p=0.3). For p202-218: WT vs. Foxn1cre-AQP4^fl/fl (p=0.3), WT vs. Aire^−/− (p=0.06).
Flow cytometry. For analysis of tetramer binding, AQP4 p133-149, p202-218, IRBP p277-289 and hCLIP p87-101 IA^b tetramers conjugated to PE or APC were provided by the National Institute of Allergy and Infectious Diseases Tetramer Core Facility at Emory University. Lymphocytes were coincubated with 1 mg/ml tetramer conjugated to PE or APC for 2 hours at room temperature, washed and enriched using anti-PE magnetic microbeads (Miltenyi) over a magnetic column. Binding to hCLIP tetramer was used as a negative control. Dead cells were excluded using Live/Dead fixable Aqua Dead Cell Stain Kit (Invitrogen), lineage negative cells were excluded using antibodies to CD11b (M1/70), B220 (RA3-6B2) and CD8 (53-6.7) and positive cells were selected using antibodies to CD3 (145-2C11) and CD4 (RM4.5). 123count eBeads (Invitrogen) were used with unenriched and enriched samples for quantification of the frequency of tet^+CD4^+ T cells (total number of tet^+CD4+ T cells divided by total CD4^+ T cells per mouse). For figures showing tetramer staining, flow cytometry of the unenriched cells are shown. For analysis of GFP^+ T cells, mice were perfused with PBS, and the CNS was dissected, minced, digested with collagenase and DNase I (Roche), and isolated over a Ficoll gradient as described previously (39). Live CD4^+ cells were analyzed with a viability stain (Near-IR), and antibodies to CD11b, B220, CD8 and CD4. Apoptosis was analyzed separately using the same antibody staining, followed by Annexin V and 7-AAD staining in Annexin V binding buffer (BioLegend) per manufacturer's instructions. Cells were quantified using 123count eBeads.

[3] = AQP4^−/− mice compared with the other strains, cognate I-A^b:peptide tetramer
[4] = Foxn1cre-AQP4^fl/fl (thymic AQP4-deficient) mice compared with WT mice

Sequence | I-A^b binding affinity relative to MOG p35-55 ([1]; competitive binding assay) | peptide binding affinity for I-A^b [1] | peptide binding affinity for I-A^b ([1]; listed as p202-218) | frequency of CD4^+ tet^+ T cells [2, 3] | frequency of CD4^+ tet^+ T cells [2, 4] | frequency of CD4^+ tet^+ T cells ([2]; Foxn1cre-AQP4^fl/fl mice compared with AQP4^−/− mice)
LFAINYTGASMNPARSF [AQP4 p202-218] | more than ten times greater affinity than MOG p35-55 | highest affinity among peptides examined in this report | bound I-A^b avidly | elevated in AQP4^−/− mice in comparison to other strains | did not permit significant restoration | –
LYLVTPPSVVGGLGVT [AQP4 p133-149] | – | bound I-A^b avidly | – | significantly elevated in AQP4^−/− mice | significantly elevated in comparison to AQP4 p133-149-specific T cells in WT mice | significantly lower than in AQP4^−/− mice
